Assay results published in patent US20140219925A1, “POLYMER PARTICLES OR NANO-VECTORS AND USE THEREOF AS A DRUG AND/OR DIAGNOSTIC AGENT” (INSERM (Institut National de la Sante et de la Recherche …, priority 2011, published 2014).
“And” between values parts separate entries of the source, which are not always exact repeats. Equal values may be shown once. Read-outs that look alike come from different tables or passages of the source.

Key:
HDAC = assay: BRET measurement of histone acetylation / HDAC inhibition in Met-5A cells; type: cell-based
Method: Cellular model: Met-5A cells (ATCC)
Seed 200000 cells per well of a 6-well plate in 2 ml of RPMI 10% FCS penicillin/streptomycin and glutamine.
D1: Transfection: phRluc-C1 BrD+pEYFP-C1 histone H3
600 ng of phRluc-C1 BrD+1500 ng of pEYFP-C1 histone H3 in 100 μl of crude RPMI.
After 6 h at 37° C., begin the treatments by adding 20 μl of treatment medium (RPMI 10% FCS penicillin, streptomycin and L-glutamine) comprising the test compounds at a ten-fold concentration.
Add 5 μl per well of coelenterazine h (Interchim) at 25 μM.
Parameters: Reading at 485 nm for 1 second and then reading at 530 nm for 1 second.
((value 530 nm phRluc-C1 BrD+pEYFP-C1 histone H3/value 480 nm phRluc-C1 BrD+pEYFP-C1 histone H3)-(value 530 nm phRluc-C1 BrD/value 480 nm phRluc-C1 BrD))×1000
Unit: milli BRET unit (mBu)
These experiments make it possible to evaluate the release of the HDAC inhibitors (HDI) in the live cells.

[1] = Hydrolysis in buffer solutions, release monitored by HPLC; type: physicochemical; conditions: for half-life at 1 mg/ml: 1 mg/ml in acetonitrile 80% / buffer solution 20%
Method: The compound is put into an acid medium (citrate buffer for pH 4.3 and […] buffer for pH 7.3) and release of CI-994 is monitored by HPLC. The hydrolysis of the compounds of the invention was carried out in buffer solutions (citrate buffer for pH 4.3 and […] for pH 7.3) at pH=4.3 and at pH=7.3. The concentration of the samples is 1 mg/ml in the solution: acetonitrile at 80% and buffer solution at 20%. […] In some cases the measurements were prolonged for 2 or 3 weeks, or even a month.

## CC(=O)Nc1ccc(C(=O)Nc2ccccc2N)cc1 [CI-994, reference compound]
HDAC; read-out: EC50 (BRET), average value±standard deviation of three independent experiments
  EC50: 0.86 ± 1.14 µM

## C#CCOCCOCCOCCOCCn1cc(C(Nc2ccccc2NC(=O)c2ccc(NC(C)=O)cc2)(c2ccccc2)c2ccccc2)nn1 [Compound 9c, N-(2-((1-(3,6,9,12-tetraoxapentadec-14-ynyl)-1H-1,2,3-triazol-4-yl)diphenylmethylamino)phenyl)-4-acetamidobenzamide]
[1]; pH 4.3 citrate buffer, read-out: t1/2 pH 4.3
  half-life at 1 mg/ml: 0.5 h
[1]; pH 7.3 Trisma buffer, read-out: t1/2 pH 7.3 (converted)
  half-life at 1 mg/ml: 86.4 h
HDAC; average value±standard deviation of three independent experiments, read-out: EC50 (BRET)
  EC50: 7.17 µM and 6.2 µM

## N^1-((1-(3,6,9,12-tetraoxapentadec-14-ynyl)-1H-1,2,3-triazol-4-yl)bis(4-fluorophenyl)methoxy)phenyl [Compound 21g]
[1]; pH 7.3
  time without hydrolysis: at least 1 month
